# Test system: fast-dividing cells in the SVZ and SGZ
# Experiment: AraC infusion (mini-osmotic pump, one week) into brain of tamoxifen-marked Gli1-CreERT2;R26R mice; marker analysis of fate-mapped lacZ+ cells
# Details: for lacZ+;GFAP+/total lacZ+ ± SD (%): end of one-week 2% AraC infusion (0 day); for lacZ+;PSA-NCAM+/total lacZ+ ± SD (%): AraC 0 day; for Dlx2 expression: after AraC treatment
# Source text: For AraC treatment, two days after TM treatment, a mini-osmotic pump (model 1007D, Duret) was implanted to infuse either saline or 2% AraC (Sigma) for one week as described (Doetsch, F. et al. (1999), Proc Natl Acad Sci USA 96: 11619-11624). Brains of mice that were sacrificed at the end of AraC or control treatment were designated as day 0 samples. For long-term survival experiments, the pump was removed one week after implantation and mice were later sacrificed at the indicated survival time. The second application of AraC was done as the first AraC treatment.
# Mice were perfused (4% paraformaldehyde (PFA)), processed for frozen sections, and stained with X-gal as described in the Joyner lab website (http://saturn.med.nyu.edu/research/dg/joynerlab). For immunofluorescent staining, dissected brains were fixed in 4% PFA overnight at 4° C. and 50 μm vibratome (Leica) sections were obtained. Free-floating sections were stained overnight at 4° C. with goat anti-galactosidase (1:500; Biogenesis) and one of the following antibodies: mouse anti-GFAP (1:500), anti-PSA-NCAM (1:300), anti-NeuN (1:200; Chemicon), anti-CCI (1:20, Calbiochem), anti-CNPase (1:150), anti-MBP (1:200, SMI), guinea pig anti-Olig2 (1:20,000; from B. Novitch), rat anti-NG2/AN2 (1:10; from C. Klein), and rabbit anti-GABA (1:500, Sigma). Secondary antibodies for double labeling were donkey anti-species conjugated with Alexa 488, Alexa 555 (1:500; Molecular Probes), or FITC (1:200; Jackson ImmunoResearch). Fluorescent images were captured in 1.5-μm optical sections using a confocal laser-scanning microscope (LSM 510, Zeiss) and processed with Adobe Photoshop. Orthogonal analysis was performed to confirm co-expression of two markers. Cells co-expressing lacZ and one of the various markers were counted and divided by total number of lacZ expressing cells in the indicated region. At least three sections through the SVZ and DG were analyzed from one mouse. Data from at least three mice were pooled together to determine the average and standard deviation (SD). T-test was performed to calculate the p-value and determine whether the results between two time points were different with statistical significance.
# Two days after TM treatment, AraC was infused for one week into the brain of Gli1-CreER^T2; R26R mice using a mini-osmotic pump.
structure (smiles),measurement,setting,value
"Nc1ccn([C@@H]2O[C@H](CO)[C@@H](O)[C@@H]2O)c(=O)n1 [AraC, cytosine arabinoside]",lacZ+;GFAP+/total lacZ+ ± SD (%),DG (SGZ),93.7±4.7%
same,lacZ+;PSA-NCAM+/total lacZ+ ± SD (%),DG,2.1 ± 3.6%
same,Dlx2 expression,RMS,greatly diminished
same,Dlx2 expression,SVZ,abolished
same,neuroblasts (PSA-NCAM immunoreactivity) in whole mounts of the lateral wall of the lateral ventricles,"end of AraC treatment (day 0), n=3",almost completely depleted
same,lacZ+;PSA-NCAM+/total lacZ+ ± SD (%),ventral SVZ,1.6 ± 2.9%
same,lacZ+;GFAP+/total lacZ+ ± SD (%),ventral SVZ,92.2±1.0%
same,labeled cells in the SVZ and DG versus control mice,"within one week after AraC removal, n=5 vs control n=4",expanded more than control mice

# Reference: patent publication US20070204353A1, “Transgenic animals and methods of monitoring hedgehog responding cells” (priority 2005, published 2007)
